Measured values as given in patent US12594276B2, “Inhibitors of human immunodeficiency virus replication” (ViiV Healthcare UK (No.5) Limited, priority 2024, dated 2026).

Experiments:
[1] = Compound cytotoxicity, XTT-based colorimetric assay; assay type: cell-based; details: human; uninfected MT2 cells, day 4, XTT; read-out: CC50
Outline: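 Uninfected MT2 cells, antiviral-assay protocol without virus; XTT colorimetric readout day 4; CC50 reported.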

[2] = tested on: recombinant NL4-3 virus (nef section replaced with Renilla luciferase gene) in MT-2 cells; experiment: HIV cell culture assay (antiviral activity, luciferase readout); assay type: cell-based; details: Renilla, NL43, MT-2 cells infected for 4-5 days with recombinant NL4-3 Renilla luciferase virus
Outline: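 293T transfection → virus harvest at 2-3 d → titer in MT-2 by luciferase. MT-2 + virus + serial cpd dilutions, 4-5 d. Live-cell luciferase read; EC50 by median effect fit.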

SMILES | CC50 at 4 days [1] [pM] | EC50 [2] [pM]
Cc1cc(C2CCC(F)(F)CC2)nc2nc([C@H](Cc3cc(F)cc(F)c3)NC(=O)Cn3nc(C(F)F)c4c3C(F)(F)[C@@H]3C[C@H]43)n(-c3ccc(Cl)c4c(NS(C)(=O)=O)nn(C[C@@H](C)N5C[C@H](F)C[C@H](F)C5)c34)c(=O)c12 (atropisomer, axis not shown; (P)) [Example 683, N-[(1S)-1-[(3P)-3-{4-chloro-1-[(2R)-2-[(3R,5S)-3,5-difluoropiperidin-1-yl]propyl]-3-methanesulfonamido-1H-indazol-7-yl}-7-(4,4-difluorocyclohexyl)-5-methyl-4-oxo-3H,4H-pyrido[2,3-d]pyrimidin-2-yl]-2-(3,5-difluorophenyl)ethyl]-2-[(2S,4R)-9-(difluoromethyl)-5,5-difluoro-7,8-diazatricyclo[4.3.0.0^2,^4]nona-1(6),8-dien-7-yl]acetamide] | > 20000 | 6
COCCCn1nc(NS(C)(=O)=O)c2c(Cl)ccc(-n3c([C@H](Cc4cc(F)cc(F)c4)NC(=O)Cn4nc(C5CC5)c5c4C[C@@H]4C[C@H]54)nc4nc(C5CCC(F)(F)CC5)cc(C5CC5)c4c3=O)c21 (atropisomer, axis not shown; (P)) [Example 376, N-[(1S)-1-[(3P)-3-[4-chloro-3-methanesulfonamido-1-(3-methoxypropyl)-1H-indazol-7-yl]-5-cyclopropyl-7-(4,4-difluorocyclohexyl)-4-oxo-3H,4H-pyrido[2,3-d]pyrimidin-2-yl]-2-(3,5-difluorophenyl)ethyl]-2-[(2S,4S)-9-cyclopropyl-7,8-diazatricyclo[4.3.0.0^2,^4]nona-1(6),8-dien-7-yl]acetamide] | > 20000 | 16
Cc1cc(C2CCC(F)(F)CC2)nc2nc([C@H](Cc3cc(F)cc(F)c3)NC(=O)Cn3nc(C(F)F)c4c3C(F)(F)[C@@H]3C[C@H]43)n(-c3ccc(Cl)c4c(NS(C)(=O)=O)nn(CCN5CCC(C)(F)CC5)c34)c(=O)c12 (atropisomer, axis not shown; (P)) [Example 271, N-[(1S)-1-[(3P)-3-{4-chloro-1-[2-(4-fluoro-4-methylpiperidin-1-yl)ethyl]-3-methanesulfonamido-1H-indazol-7-yl}-7-(4,4-difluorocyclohexyl)-5-methyl-4-oxo-3H,4H-pyrido[2,3-d]pyrimidin-2-yl]-2-(3,5-difluorophenyl)ethyl]-2-[(2S,4R)-9-(difluoromethyl)-5,5-difluoro-7,8-diazatricyclo[4.3.0.0^2,^4]nona-1(6),8-dien-7-yl]acetamide] | > 50000 | 15
Cc1cc(C2CCC(F)(F)CC2)nc2nc([C@H](Cc3cc(F)cc(F)c3)NC(=O)Cn3nc(C4CC4)c4c3C[C@@H]3C[C@H]43)n(-c3ccc(Cl)c4c(NS(C)(=O)=O)nn(CCN5CCCC(F)(F)C5)c34)c(=O)c12 (atropisomer, axis not shown; (P)) [Example 2, N-[(1S)-1-[(3P)-3-{4-chloro-1-[2-(3,3-difluoropiperidin-1-yl)ethyl]-3-methanesulfonamido-1H-indazol-7-yl}-7-(4,4-difluorocyclohexyl)-5-methyl-4-oxo-3H,4H-pyrido[2,3-d]pyrimidin-2-yl]-2-(3,5-difluorophenyl)ethyl]-2-[(2S,4S)-9-cyclopropyl-7,8-diazatricyclo[4.3.0.0^2,^4]nona-1(6),8-dien-7-yl]acetamide] | > 50000 | 8
C[C@@H]1CN(CCn2nc(NS(C)(=O)=O)c3c(Cl)ccc(-n4c([C@H](Cc5cc(F)cc(F)c5)NC(=O)Cn5nc(C(F)F)c6c5C(F)(F)[C@@H]5C[C@H]65)nc5nc(C6CCC(F)(F)CC6)cc(CN6C[C@@H](C)O[C@@H](C)C6)c5c4=O)c32)C[C@H](C)O1 (atropisomer, axis not shown; (P)) [Example 528, N-[(1S)-1-[(3P)-3-(4-chloro-1-{2-[(2R,6S)-2,6-dimethylmorpholin-4-yl]ethyl}-3-methanesulfonamido-1H-indazol-7-yl)-7-(4,4-difluorocyclohexyl)-5-{[(2R,6S)-2,6-dimethylmorpholin-4-yl]methyl}-4-oxo-3H,4H-pyrido[2,3-d]pyrimidin-2-yl]-2-(3,5-difluorophenyl)ethyl]-2-[(2S,4R)-9-(difluoromethyl)-5,5-difluoro-7,8-diazatricyclo[4.3.0.0^2,^4]nona-1(6),8-dien-7-yl]acetamide] | > 20000 | 6
COCCCn1nc(NS(C)(=O)=O)c2c(Cl)ccc(-n3c([C@H](Cc4cc(F)cc(F)c4)NC(=O)Cn4nc(C(F)F)c5c4C(F)(F)[C@@H]4C[C@H]54)nc4nc(C5CCC(F)(F)CC5)cc(NCCN5CCCC5)c4c3=O)c21 (atropisomer, axis not shown; (P)) [Example 429, N-[(1S)-1-[(3P)-3-[4-chloro-3-methanesulfonamido-1-(3-methoxypropyl)-1H-indazol-7-yl]-7-(4,4-difluorocyclohexyl)-4-oxo-5-{[2-(pyrrolidin-1-yl)ethyl]amino}-3H,4H-pyrido[2,3-d]pyrimidin-2-yl]-2-(3,5-difluorophenyl)ethyl]-2-[(2S,4R)-9-(difluoromethyl)-5,5-difluoro-7,8-diazatricyclo[4.3.0.0^2,^4]nona-1(6),8-dien-7-yl]acetamide] | > 20000 | 19
COCCCn1nc(NS(C)(=O)=O)c2c(Cl)ccc(-n3c([C@H](Cc4cc(F)cc(F)c4)NC(=O)Cn4nc(C(F)F)c5c4C(F)(F)[C@@H]4C[C@H]54)nc4nc(C5CCC(F)(F)CC5)cc(NCCN5CCC(F)(F)CC5)c4c3=O)c21 (atropisomer, axis not shown; (P)) [Example 498, N-[(1S)-1-[(3P)-3-[4-chloro-3-methanesulfonamido-1-(3-methoxypropyl)-1H-indazol-7-yl]-7-(4,4-difluorocyclohexyl)-5-{[2-(4,4-difluoropiperidin-1-yl)ethyl]amino}-4-oxo-3H,4H-pyrido[2,3-d]pyrimidin-2-yl]-2-(3,5-difluorophenyl)ethyl]-2-[(2S,4R)-9-(difluoromethyl)-5,5-difluoro-7,8-diazatricyclo[4.3.0.0^2,^4]nona-1(6),8-dien-7-yl]acetamide] | > 20000 | 18
Cc1cc(C2CCC(F)(F)CC2)nc2nc([C@H](Cc3cc(F)cc(F)c3)NC(=O)Cn3nc(C(F)F)c4c3C(F)(F)[C@@H]3C[C@H]43)n(-c3ccc(Cl)c4c(NS(C)(=O)=O)nn(CCN5CC6C(C5)C6(F)F)c34)c(=O)c12 (stereo partly drawn) [Example 312, N-[(1S)-1-[(3P)-3-[4-chloro-1-(2-{6,6-difluoro-3-azabicyclo[3.1.0]hexan-3-yl}ethyl)-3-methanesulfonamido-1H-indazol-7-yl]-7-(4,4-difluorocyclohexyl)-5-methyl-4-oxo-3H,4H-pyrido[2,3-d]pyrimidin-2-yl]-2-(3,5-difluorophenyl)ethyl]-2-[(2S,4R)-9-(difluoromethyl)-5,5-difluoro-7,8-diazatricyclo[4.3.0.0^2,^4]nona-1(6),8-dien-7-yl]acetamide] | > 50000 | 21
Cc1cc(C2(F)CCC(F)(F)CC2)nc2nc([C@H](Cc3cc(F)cc(F)c3)NC(=O)Cn3nc(C4CC4)c4c3C[C@@H]3C[C@H]43)n(-c3ccc(Cl)c4c(NS(C)(=O)=O)nn(CCN5CC(C)(C)OC(C)(C)C5)c34)c(=O)c12 (atropisomer, axis not shown; (P)) [Example 504, N-[(1S)-1-[(3P)-3-{4-chloro-3-methanesulfonamido-1-[2-(2,2,6,6-tetramethylmorpholin-4-yl)ethyl]-1H-indazol-7-yl}-5-methyl-4-oxo-7-(1,4,4-trifluorocyclohexyl)-3H,4H-pyrido[2,3-d]pyrimidin-2-yl]-2-(3,5-difluorophenyl)ethyl]-2-[(2S,4S)-9-cyclopropyl-7,8-diazatricyclo[4.3.0.0^2,^4]nona-1(6),8-dien-7-yl]acetamide] | > 20000 | 49
Cc1cc(C2(F)CCC(F)(F)CC2)nc2nc([C@H](Cc3cc(F)cc(F)c3)NC(=O)Cn3nc(C4CC4)c4c3C[C@@H]3C[C@H]43)n(-c3ccc(Cl)c4c(NS(C)(=O)=O)nn(CCc5cccnc5)c34)c(=O)c12 (relative stereo) [Example 741, N-[(1S)-1-[(3P)-3-{4-chloro-3-methanesulfonamido-1-[2-(pyridin-3-yl)ethyl]-1H-indazol-7-yl}-5-methyl-4-oxo-7-(1,4,4-trifluorocyclohexyl)-3H,4H-pyrido[2,3-d]pyrimidin-2-yl]-2-(3,5-difluorophenyl)ethyl]-2-[(2R*,4R*)-9-cyclopropyl-7,8-diazatricyclo[4.3.0.0^2,^4]nona-1(6),8-dien-7-yl]acetamide] | > 20000 | 40
Cc1cc(C2(C)CCC(F)(F)CC2)nc2nc([C@H](Cc3cc(F)cc(F)c3)NC(=O)Cn3nc(C(F)F)c4c3C(F)(F)[C@@H]3C[C@H]43)n(-c3ccc(Cl)c4c(NS(C)(=O)=O)nn(CCN5C[C@H](F)C[C@H](F)C5)c34)c(=O)c12 (atropisomer, axis not shown; (P)) [Example 473, N-[(1S)-1-[(3P)-3-(4-chloro-1-{2-[(3R,5S)-3,5-difluoropiperidin-1-yl]ethyl}-3-methanesulfonamido-1H-indazol-7-yl)-7-(4,4-difluoro-1-methylcyclohexyl)-5-methyl-4-oxo-3H,4H-pyrido[2,3-d]pyrimidin-2-yl]-2-(3,5-difluorophenyl)ethyl]-2-[(2S,4R)-9-(difluoromethyl)-5,5-difluoro-7,8-diazatricyclo[4.3.0.0^2,^4]nona-1(6),8-dien-7-yl]acetamide] | > 20000 | 8
